The record followed here is PubChem BioAssay (NCI).

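Dose response: 5 concentrations. Exposure: 48 h. Format: 96-well plates. Endpoint: linear interpolation; highest concentration if not reached. GI50 = concentration required for 50% inhibition of growth. TGI denotes the concentration required for complete inhibition of growth.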

Assay in all cases: growth of human tumour cells (NCI), 48 h
For assay [1], the system named is SK-MEL-28 melanoma.
Assay [2] relates to UACC-257 melanoma.
The subject of assay [3] is NCI-H522 lung.
Assay [4] concerns OVCAR-5 ovarian.
The subject of assay [5] is SK-MEL-5 melanoma.
Assay [6] has as its system HT29 colon.
Assay [7] relates to 786-0 renal.
For assay [8], the system named is MOLT-4 leukemia.
The test system of assay [9] is A498 renal.
The test system of assay [10] is PC-3 prostate.

In the case of `Cc1nc2ccccc2c(=O)n1-c1ccccc1F`, the TGI in [1], in assay [2], in assay [3], in assay [4], in [5] and in assay [6] was > 100 µM in each case. Further, the TGI in assay [7], in assay [8] and in assay [9] was > 100 µM throughout.
Consider `CCOC(=O)CCn1[nH]c(=O)c(Cl)c(Cl)c1=O`, for which the TGI in assay [1], in assay [2], in assay [3], in assay [4], in assay [5] and in assay [6] was > 100 µM in each case. Besides, the TGI in assay [7] and in [9] was > 100 µM in each case.
Take `N.N.O=C([O-])P(=O)([O-])[O-].[Na+].[Pt+4]`: the GI50 in [1], in assay [2], in assay [3], in assay [5], in assay [7] and in [8] was > 100 µM in each case. The GI50 in assay [9] is > 100 µM. The TGI in [1], in assay [2], in assay [3], in [5], in assay [7] and in assay [8] was > 100 µM throughout. Besides, in assay [9], the TGI was > 100 µM.
Regarding `O=C(Nc1ccc(Cl)cc1Cl)C(=O)C(C(=O)c1ccncc1)C1OC(=O)c2ccccc21` (centres undefined), the TGI in assay [1], in assay [2], in assay [3], in [4], in [5] and in [6] was > 100 µM each time. The TGI in [7], in [8] and in [9] was > 100 µM each time.
Regarding `COc1ccc(CNc2nc3cc(C(F)(F)F)ccc3nc2C)cc1OC`, the TGI in [1] is > 100 µM; in assay [2], 42.6 µM; in assay [3], 92.7 µM; in assay [4], > 100 µM; in [5], 31.3 µM; in assay [6], > 100 µM. The TGI is 58.9 µM in [7], 45.7 µM in [8] and 83.6 µM in assay [9].
For the compound `CC(C)c1cc2c(O)c(c1)Cc1cc(C(C)C)cc(c1O)Cc1cc(C(C)C)cc(c1O)Cc1cc(C(C)C)cc(c1O)C2`, the TGI in assay [2], in [3], in [4], in assay [5], in assay [6] and in assay [7] was > 100 µM each time. Besides, the TGI in assay [8] and in [9] was > 100 µM throughout.
As for `COC(=O)C(=O)C(C(=O)C=C(C)C)C(=O)C(=O)Nc1ccc(C)cc1C` (centres undefined), the TGI in [1], in assay [2], in assay [3], in [4], in assay [5] and in assay [6] was > 100 µM each time. Further, the TGI in assay [7], in assay [8] and in [9] was > 100 µM throughout.
Turning to `COc1cccc(N2C(=O)[C@H]3CC(C)c4c([nH]c5ccccc45)[C@H]3C2=O)c1` (some centres undefined), the TGI in [1] is > 100 µM; in assay [2], > 100 µM; in assay [3], > 100 µM; in assay [5], > 100 µM; in assay [6], > 100 µM; in [7], 50.5 µM. Further, the TGI in assay [8] and in assay [9] was > 100 µM in each case.
For `Cc1[nH]c2ccccc2c1C1Cc2ccccc2N1C(=O)/C(Cl)=C/c1ccccc1` (centres undefined), the TGI in assay [1], in assay [2], in [3], in assay [4], in assay [5] and in assay [6] was > 100 µM throughout. Further, the TGI in assay [7], in [8] and in assay [9] was > 100 µM throughout.
With `N#CCC(=O)NC1C2CC3CC(C2)CC1C3` (centres undefined), the TGI in assay [1] is 43.3 µM; in [2], 47.2 µM; in assay [3] it was 31 µM; in assay [4], 36.9 µM; in assay [5], 27.9 µM; in assay [6] it was 33.1 µM. In addition, the TGI in assay [7] was 35.8 µM; in assay [8], > 100 µM; in assay [9], 30.2 µM.
As for `COC(=O)C(=Cc1cc(OC)c(OC)c(OC)c1-c1cc2c(cc1C(C)=O)OCO2)C(=O)OC`, the TGI amounted to 78.1 µM in assay [1]; 188 µM in assay [2]; 62.2 µM in [3]; 74.1 µM in assay [4]; 70.1 µM in assay [5]; 77 µM in assay [6]. Also, the results for the TGI in [7] and in [8] were 61.6 µM and > 211 µM, respectively.
In the case of `COc1ccc(-c2cc(=O)c3ccccc3[nH]2)c(OC)c1`, the TGI in assay [1], in assay [2], in assay [3], in assay [6], in assay [7] and in assay [8] was > 100 µM in each case.
With `CN(C)C(c1ccccc1)C(O)c1ccccc1` (centres undefined), the TGI in assay [1], in [2], in assay [3], in [6], in assay [7] and in assay [8] was > 100 µM throughout. Besides, in assay [9], the TGI is > 100 µM.
`OC/C=C(\I)CCCOCOCc1ccccc1`: the TGI was > 100 µM in assay [1]; 80.2 µM in assay [3]; > 100 µM in [4]; 54.5 µM in assay [5]; > 100 µM in [6]; > 100 µM in [7]. In addition, the TGI was 13.1 µM in assay [8] and > 100 µM in assay [9].
As to `CCOC(=O)C(Cc1cn(S(=O)(=O)c2ccccc2)c2ccccc12)(NC(C)=O)C(=O)OCC`, the TGI in [1] was > 100 µM; in assay [2] it was 88.2 µM; in [3], 52.5 µM; in assay [4], > 100 µM; in assay [5], 33.7 µM; in assay [6], > 100 µM. Further, the TGI in [7] is > 100 µM; in [8], 61.4 µM.
Regarding `C/C(=C1/CCC/C(=C(/C)c2ccccc2)C1=O)c1ccccc1`, the TGI was > 100 µM in assay [1]; 74.9 µM in assay [2]; > 100 µM in [3]; > 100 µM in assay [4]; 47.8 µM in assay [5]; 86.8 µM in assay [6]. The TGI in [7] is > 100 µM; in assay [8] it was 64.3 µM.
As to `COc1ncc(-c2ccc3ncnc(Nc4cccc(Cl)c4)c3c2)cc1NS(=O)(=O)CCN1CCOCC1`, the GI50 in [10] is 0.326 µM; in [3], 0.402 µM; in assay [7], 0.298 µM. Also, the TGI in [10] was > 100 µM; in assay [3], 8.6 µM; in assay [7], > 100 µM.
For the compound `Fc1ccc(C2SCc3nc4ccccc4n32)cc1Cl` (centres undefined), the TGI in [1] is 61.2 µM; in assay [2], 56.7 µM; in assay [3], 35.2 µM; in [4], 66.6 µM; in assay [6], > 100 µM; in assay [7], > 100 µM. Further, the TGI in assay [8] was 69.9 µM; in assay [9], > 100 µM.
Turning to `Cc1ccc(-c2cc(=O)c3cc(C)c(C)c(C(=O)O)c3o2)cc1C`, the TGI in [1], in assay [2], in [3], in assay [4], in [5] and in assay [6] was > 100 µM each time. Also, the TGI in [7] and in assay [8] was > 100 µM throughout.
Regarding `N#CCc1ccc(C(C#N)/C(CCCC(=O)Nc2cccc([N+](=O)[O-])c2)=N/NC(N)=S)cc1` (centres undefined), the TGI in assay [1], in assay [2], in assay [3], in assay [4], in assay [5] and in assay [6] was > 100 µM in each case. Also, the TGI in [7], in [8] and in assay [9] was > 100 µM throughout.
Consider `CC(=O)N1C/C(=C\c2ccc(N(C)C)cc2)C(=O)/C(=C/c2ccc(N(C)C)cc2)C1`, for which the TGI in [1], in assay [2], in assay [4], in assay [5], in assay [6] and in assay [7] was > 100 µM each time. In addition, the TGI in [8] and in assay [9] was > 100 µM in each case.
In the case of `c1cc[c]([Pb]([c]2ccccc2)[c]2ccccc2)cc1`, the GI50 in assay [1] is 16.5 µM; in assay [2] it was 19 µM; in [3], 2.53 µM; in [4] it was 11 µM; in assay [5], 12.3 µM; in [6] it was 16.4 µM. Besides, the GI50 in assay [7] was 11.4 µM; in [8] it was 15.7 µM; in assay [9], 16 µM. Also, the TGI is 36.6 µM in [1]; 59.1 µM in assay [2]; 15.1 µM in assay [3]; 34.9 µM in [4]; 32.6 µM in [5]; 49.6 µM in assay [6]. For the same compound, the TGI was found to be 33.2 µM in assay [7], 71.7 µM in assay [8] and 46.2 µM in [9].
As for `CCc1ccc(Nc2ccc([N+](=O)[O-])cc2[N+](=O)[O-])cc1`, the TGI in assay [1], in assay [2], in assay [4], in assay [5], in [6] and in [7] was > 100 µM each time. Further, the values for the TGI in [8] and in assay [9] were > 100 µM and 66.9 µM, respectively.
With `COc1ccc(/C(Cl)=C(\C=O)c2ccc([N+](=O)[O-])cc2)cc1`, the TGI in [1] was > 93.8 µM; in assay [2], 64.9 µM; in assay [3], > 46.8 µM; in assay [4] it was > 100 µM; in [5], 39.9 µM; in [6] it was 29.9 µM. Further, the results for the TGI in assay [7], in assay [8] and in assay [9] were 31.6 µM, 7.24 µM and 74.1 µM, respectively.
Regarding `O=C1NC2OCC(O)C(O)C2O1` (centres undefined), the TGI in [1], in [2], in assay [3], in assay [4], in assay [5] and in assay [6] was > 100 µM throughout. Moreover, the TGI in assay [7], in [8] and in assay [9] was > 100 µM in each case.
With `FC(F)(F)c1nc(-c2ccccc2)oc1Sc1nnc(Sc2oc(-c3ccccc3)nc2C(F)(F)F)s1`, the TGI in assay [1] is > 93.8 µM; in assay [2], > 100 µM; in assay [3], 36.8 µM; in assay [4], > 100 µM; in assay [5], 33.9 µM; in assay [6] it was > 100 µM. Also, the TGI in [7] is 74 µM; in [8], 17 µM; in assay [9] it was > 100 µM.
As to `CC1=N/C(=C\c2cccc([N+](=O)[O-])c2)C(=O)O1`, the TGI in [1], in assay [2], in [3], in assay [4], in assay [5] and in assay [6] was > 100 µM each time. In addition, the TGI in assay [7], in [8] and in [9] was > 100 µM each time.
In the case of `CC(C)c1ccc(C(c2ccc(OCC(=O)O)cc2)c2ccc(C(C)C)cc(=O)c2O)c(O)c(=O)c1`, the TGI is 24.5 µM in assay [1]; 41.6 µM in assay [2]; 9.14 µM in [5]; > 100 µM in assay [6]; 22 µM in assay [7]; 30.7 µM in assay [8]. Further, the TGI in assay [9] was 69.5 µM.
As to `COc1cccc(/C=C2\C(=O)N(C(=O)c3ccc(NC(C)=O)cc3)N=C2C)c1`, the TGI in assay [1], in assay [2], in [3], in assay [4], in assay [5] and in assay [6] was > 100 µM throughout. Moreover, the TGI in [7] and in assay [8] was > 100 µM each time.
For `COC(=O)c1cc(C)c(C)c2c1NC(=O)CNC2=O`, the TGI in assay [1], in assay [2], in [6], in assay [7], in assay [8] and in assay [9] was > 100 µM in each case.
